Values quoted from earlier work, collected in patent publication US20090054305A1, “Mixtures of Amylin and Insulin” (Novo Nordisk A/S, priority 2006, published 2009).
Ends that are not written are not given here.

Settings: compared to human amylin

Row | Substance | solubility and stability characteristics
1 | ^25Pro^26Val^28, 29Pro-h-amylin | more desirable solubility and stability characteristics
2 | ^18Arg^25, 28Pro-h-amylin | more desirable solubility and stability characteristics

Settings: treated test animals, e.g. provoking marked hyperlactemia followed by hyperglycemia

Row | Substance | amylin activity in vivo
3 | des-^1Lys^18Arg^25, 28Pro-h-amylin | amylin activity in vivo
4 | ^18Arg^25, 28Pro-h-amylin | amylin activity in vivo
5 | des-^1Lys-h-amylin (CNTATCATQRLANFLVHSSNNFGAILSSTNVGSNTY; not fully specified (C-terminus, bridges); ends and bridges not checked; UniProt P10997 34-70, looked up, variant K1*) [human amylin analog where the lysine in position 1 is lacking] | amylin activity in vivo
6 | ^28Pro-h-amylin | amylin activity in vivo
